Assay results published in patent publication US12201628B2, “Neuronal modulation” (priority 2013, dated 2025).

What was measured:
[1] = IP injected; cited from earlier work
[2] = system: immune cell clusters (CD45+ cells); assay: CyTOF mass cytometry of blood and spleen with Citrus analysis; type: in vivo, mice; conditions: 6-OHDA 150 mg/kg twice IP (SNS ablated); splenocytes 24 h after VTA activation
Experimental: Two weeks after completion of the behavioral testing, mice were injected intraperitoneally with CNO and anesthetized 24 hours thereafter. Spleens and blood samples were collected. Spleens were dissociated into single-cell suspensions in 2% fetal bovine serum (Biological Industries, IL) and mesh filtered to remove clumps and debris. Blood samples were collected into heparin-coated sterile test tubes. Both the blood and the spleen cell suspensions were lysed with red blood cell lysis buffer (BD Biosciences, NJ, US). Cells ([…]) from each tissue were stained, for 1 hour at room temperature, with a mixture of metal tagged antibodies recognizing CD45, CCR3, CD80, GR1, CD86, CD19, CD4, CD45R, CD152, CD138, CD8, NK1.1, CD27, CD206, CD25, CD14, CD11c, CD49b, CD34, CD69, CD123, TCRβ, CCR7, CD28, CD115, CD133, TLR4, CD117, CD79b, CD62L, CD44, CD45RA, CD1d, IAIE, CD5, and CD11b. All antibodies were conjugated using the MAXPAR reagent (Fluidigm Inc.), with Rhodium and Iridium intercalators used to identify live/dead cells. Cells were washed twice with PBS, fixed in 1.6% formaldehyde (Sigma-Aldrich, St. Louis, MO) for 1 hour, washed again in ultrapure H2O and subjected to CyTOF mass cytometry analysis on a CyTOF I machine, with cell events acquired at approximately 500 events per second. In addition, each sample was spiked with internal metal isotope bead standards, which then was used for sample normalization by CyTOF software (Fluidigm). Acquired data was then uploaded to a Cytobank web server (Cytobank Inc.) for data processing and gating out of dead cells and normalization beads. Data was transformed using an arc sin h (X/5) transformation.
Differences in cell subset abundance and functional marker expression between VTA activated and control mice, were identified using the Citrus algorithm, a clustering and differential detection algorithm especially suited for high dimensional cytometry data (2). Twenty FCS files of normalized, live cell/no beads samples (Five VTA activated mice spleens, five VTA activated mice blood samples, 5 control mice spleen and five control mice blood) were each randomly sampled for 40,000 single cell events each. Briefly, Citrus performs three steps to identify cell subsets and differences between groups: First, collected single cell events are pooled together and iteratively hierarchically clustered using a subset of the measured channels for clustering (See Table 1 for a list of 23 clustering markers), yielding overlapping clusters with the ultimate cluster being one encompassing all sampled events. Second, the pooled dataset is split back into its constituting samples and the relative abundance of cells in each cluster is computed, as well as the median values of each functional marker (see Table 1 for a list of functional markers). Only cell clusters whose total abundance in one or more of the measured samples was greater than 1% of the total measured sample was retained for downstream analysis, yielding a total of 151 clusters. Third, the Citrus implementation of the SAM algorithm was applied, to identify, separately, differences in cell subset abundances and medians between VTA activated and control mouse samples at a predetermined FDR of 5%. Beyond this, an additional criteria for calling differences was employed, by performing a Mann-Whitney non-parametric test of significance on each cluster found to be different between VTA activated and control and requiring that it meet a p-value <0.05 criteria. Manual inspection of Citrus output was used to identify the closest known gross-cell type, matching the 23 combination clustering marker panel. A similar procedure analysis procedure was performed for 6-OHDA samples versus control. […]

NCCc1cc(O)c(O)cc1O [6 OHDA, 6-hydroxydopamine]
crossing of the blood brain barrier [1]: does not cross the blood brain barrier | differences in immune system (CD45+ cells) between VTA-activated and control mice [2]: no significant differences were detected
